Assay results from paper PMC2751796 (Pharmacology & therapeutics, 2009).
Where two headings read alike, the source gives them in different places.

Legend:
rOAT3 = conditions: inhibition of rOAT3-mediated 6-mercaptopurine transport; ref Mori et al., 2004; cited from earlier work
[1] = ref Heideman et al., 1986; cited from earlier work
[2] = cited from earlier work
[3] = mouse, in vivo; cited from earlier work
Mrp2 = conditions: ref Potschka et al., 2003; cited from earlier work
[4] = tested on: MRPs, organic anion transporters; conditions: ref Potschka et al., 2003; cited from earlier work
[5] = mice, 50 mg/kg, PO; ref Hubensack et al., 2008; cited from earlier work
P-gp [6] = conditions: 150 mg, iv; ref Kurnik et al., 2008; cited from earlier work
[7] = highest dose; ref Bankstahl et al., 2008; cited from earlier work
P-gp [8] = conditions: ref de Vries et al., 2007; cited from earlier work
P-gp [9] = conditions: AUC, cited from earlier work
Bcrp [10] = conditions: ref de Vries et al., 2007; cited from earlier work
P-gp and BCRP = conditions: ref de Vries et al., 2007; cited from earlier work
Bcrp [11] = conditions: cited from earlier work
P-gp [12] = tested on: P-gp; set-up: species or system human; conditions: at 5.6 μM cyclosporine blood concentration
P-gp [13] = conditions: ref Passchier et al., 2003; cited from earlier work
P-gp [14] = conditions: rhesus monkey, 8 mg/kg; ref Zoghbi et al., 2008; cited from earlier work
P-gp [15] = conditions: cited from earlier work
Ent1 = conditions: mice; ref Lepist et al., 2008; cited from earlier work
[16] = intraventricularly injected, ref Bode et al., 1980
[17] = Elacridar (50 and 100 mg/kg, PO), ref de Vries et al., 2007

CN(Cc1cnc2nc(N)nc(N)c2n1)c1ccc(C(=O)N[C@@H](CCC(=O)O)C(=O)O)cc1 [Methotrexate]
Ki relative to estimated brain concentration in patients receiving chemotherapy (rOAT3): 17.5 fold | CNS distribution in untreated subjects (ventricular CSF / plasma AUC ratio) [1]: 0.02 (ventricular CSF / plasma AUC ratio) | Increase of CSF concentrations by probenecid ([2]; 4 patients, ref Howell et al., 1979): 2.8 to 4.2 fold | Effect of probenecid 1250 mg/m^2 daily on efflux kinetics [2, 16]: did not change | Extension of terminal half life (CSF) by probenecid 2500 mg/m^2 [2, 16]: up to 53% | CSF concentrations with vincristine vs. monotherapy ([2]; patient with lymphoma, ref Tejada & Zubrod, 1979): 2.5 fold | Effect of vindesine on CSF concentration ([2]; ref Tubiana et al., 1985): did not affect

CCC1(c2ccccc2)C(=O)NC(=O)NC1=O [Phenobarbital]
Brain uptake ratio in WT, untreated mice [3]: ∼ 0.27-0.4

O=C1NC(=O)C(c2ccccc2)(c2ccccc2)N1 [Phenytoin]
Extracellular concentrations and anticonvulsant activity vs. rats that do not lack Mrp2 (Mrp2): two-fold greater | Enhancement of brain penetration and anticonvulsant activity by probenecid [4]: up to two-fold

COc1cc2c(cc1OC)CN(CCc1ccc(NC(=O)c3cc(OC)c(OC)cc3NC(=O)c3cnc4ccccc4c3)cc1)CC2 [Tariquidar]
Inhibitor concentration (brain) [5]: 3-9 nmol/g (brain) (∼2-fold greater in plasma) | Inhibition of lymphocyte P-gp activity (P-gp [6]): completely inhibited | Tariquidar blood concentration [7]: 1402 ng/mL | Tariquidar brain concentration [7]: 4131 ng/mL

CC[C@@]1(O)C(=O)OCc2c1cc1n(c2=O)Cc2cc3c(CN(C)C)c(O)ccc3nc2-1 [Topotecan]
Brain-to-plasma AUC ratio in Mdr1a/b-/- mice compared to WT controls (P-gp [8]): two times higher | Fold change in brain uptake ratio in inhibitor-treated vs. control mice (P-gp [9]; [17]): 1.6 fold | Fold change in brain uptake ratio in inhibitor-treated vs. control mice (value corrected for drug in vasculature) (P-gp [9]; [17]): 1.7 fold | Fold change in brain uptake ratio in inhibitor-treated vs. control mice (P-gp [9]; Gefitinib (200 mg/kg, PO), microdialysis, ref Zhuang et al., 2006): 1.7 ^b, AUC fold | Brain-to-plasma AUC ratio in Bcrp-/- mice compared to WT controls (Bcrp [10]): not different | Increase of brain-to-plasma AUC ratio in Mdr1a/b-/-/Bcrp-/- mice (P-gp and BCRP): 3.2 fold | Increase of oral bioavailability with elacridar in Mdr1a/b-/- mice (Bcrp [11]; ref Jonker et al., 2000): more than 6 fold | Increase of placental transfer with elacridar in Mdr1a/b-/- mice (Bcrp [11]; ref Jonker et al., 2000): > 2 fold | Increase of brain distribution with elacridar in Mdr1a/b-/- mice (Bcrp [11]; ref de Vries et al., 2007): 1.6 fold

CN([11CH3])C(=O)C(CCN1CCC(O)(c2ccc(Cl)cc2)CC1)(c1ccccc1)c1ccccc1 [[^11C]-Loperamide]
Predicted increase in CNS distribution in humans (P-gp [12]): 56-412% | Increase in brain radioactivity with cyclosporine in pigs (P-gp [13]): up to 7 fold | Increase in plasma radioactivity with DCPQ (P-gp [14]): 16% | Increase in distribution of radioactivity at the human BBB on P-gp inhibition (P-gp [15]; data obtained so far): ~100% | Increase of brain [^11C]-loperamide with cyclosporine in humans (P-gp [15]; intravenous infusion 10 mg/kg/2 hr, ref Passchier et al., 2008): ~110%

OC[C@H]1O[C@@H](n2cnc3c(N[C@@H]4CCOC4)ncnc32)[C@H](O)[C@@H]1O [tecadenoson]
Decrease in brain AUC with nitrobenzyl-mercaptopurine ribonucleoside (Ent1): 2.5 fold
